Series [1] deals with Mus musculus. Briefly: Antiobesity activity in NMRI mouse assessed as reduction in cumulative food intake at 10 nmol/ml, sc measured up to 20 hrs. The format is functional, organism-based.
A short description of series [2]: Induction of self aggregation in pH 7.4 PBS buffer assessed as retention volume by size exclusion chromatographic method. Background: Size exclusion chromatography separates by hydrodynamic size, large species first.
The next series has as its target Albumin (Homo sapiens, UniProt P02768). Briefly: Binding affinity to human serum albumin by SPR analysis. Conditions: isolated protein. The format is ADME. A general note: In SPR one partner is held on a chip, and binding of the other changes the refractive index at the surface.
Series [3] is described as follows: Half life in iv dosed human. The format is ADME, organism-based. The note with it: in vivo.
In series [4] the test system is Mus musculus. Description: Antidiabetic activity in NMRI mouse assessed as blood glucose AUC (0 to 120 mins) at 10 nmol/ml, sc administered 45 mins prior to glucose challenge by OGTT (reference value: 1725 +/- 257 mmol/L). The format is functional, organism-based. Details: dose 10 nmol/ml, time < 2 hr.
Series [5] in a line: Tmax in C57Bl/6 mouse plasma at 10 nmol/ml, sc. The class given is ADME.
For series [6], the system named is Mus musculus. Description: Antiobesity activity in NMRI mouse assessed as reduction in acute food intake at 10 nmol/ml, sc measured up to 20 hrs. The class given is functional, organism-based.
Series [7] in a line: Half life in C57Bl/6 mouse plasma at 10 nmol/ml, sc. The class given is ADME.
The test system of series [8] is Mus musculus. Description: Antiobesity activity in NMRI mouse assessed as food intake at 10 nmol/ml, sc measured after 20 hrs (reference value: 3.51 +/- 0.49 g). The format is functional.
Series [9] in a line: Induction of monodisperse self aggregation in pH 7.4 PBS buffer by dynamic light scattering method.
Series [10] is described as follows: Induction of self aggregation in pH 7.4 PBS buffer assessed as supramolecular hydrodynamic radii at 1 mg/ml by dynamic light scattering method.

The structures appear in SMILES notation. The source made the active and inactive calls. The calls are words filed in the database; no cut-off is given here.

Sequence of Albumin (P02768 whole entry): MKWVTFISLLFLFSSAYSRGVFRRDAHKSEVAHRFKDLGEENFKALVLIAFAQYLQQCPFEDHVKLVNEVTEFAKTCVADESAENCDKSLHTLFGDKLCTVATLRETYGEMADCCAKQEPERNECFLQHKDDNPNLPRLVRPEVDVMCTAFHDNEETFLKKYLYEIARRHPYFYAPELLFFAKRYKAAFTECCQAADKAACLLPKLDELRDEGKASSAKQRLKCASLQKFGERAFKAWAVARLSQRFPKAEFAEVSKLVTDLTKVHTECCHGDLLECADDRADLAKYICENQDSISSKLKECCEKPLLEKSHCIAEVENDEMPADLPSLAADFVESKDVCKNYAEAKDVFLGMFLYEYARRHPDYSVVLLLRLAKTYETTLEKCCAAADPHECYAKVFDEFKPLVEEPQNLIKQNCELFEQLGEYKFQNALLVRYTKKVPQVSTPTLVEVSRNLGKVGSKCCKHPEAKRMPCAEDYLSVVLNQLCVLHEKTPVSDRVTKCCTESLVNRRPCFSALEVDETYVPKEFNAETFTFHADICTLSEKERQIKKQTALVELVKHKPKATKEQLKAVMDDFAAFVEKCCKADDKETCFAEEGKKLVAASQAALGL

Turning to `CC[C@H](C)[C@H](NC(=O)[C@H](Cc1ccccc1)NC(=O)[C@H](CCC(=O)O)NC(=O)[C@H](CCCCNC(=O)COCCOCCNC(=O)[C@H](CCCNC(=O)COc1ccc(-c2ccc(F)cc2F)cc1C(=O)O)NC(=O)CC[C@H](NC(=O)Cc1c(C)n(C(=O)c2ccc(Cl)cc2)c2ccc(OC)cc12)C(=O)O)NC(=O)[C@H](C)NC(=O)[C@H](C)NC(=O)[C@H](CCC(N)=O)NC(=O)CNC(=O)[C@H](CCC(=O)O)NC(=O)[C@H](CC(C)C)NC(=O)[C@H](Cc1ccc(O)cc1)NC(=O)[C@H](CO)NC(=O)[C@H](CO)NC(=O)[C@@H](NC(=O)[C@H](CC(=O)O)NC(=O)[C@H](CO)NC(=O)[C@@H](NC(=O)[C@H](Cc1ccccc1)NC(=O)[C@@H](NC(=O)CNC(=O)[C@H](CCC(=O)O)NC(=O)[C@H](C)NC(=O)[C@@H](N)Cc1cnc[nH]1)[C@@H](C)O)[C@@H](C)O)C(C)C)C(=O)N[C@@H](C)C(=O)N[C@@H](Cc1c[nH]c2ccccc12)C(=O)N[C@@H](CC(C)C)C(=O)N[C@H](C(=O)N[C@@H](CCCNC(=N)N)C(=O)NCC(=O)N[C@@H](CCCNC(=N)N)C(=O)NCC(=O)O)C(C)C`, the outcome in the series with Mus musculus [1] was Active.

Turning to `CC[C@H](C)[C@H](NC(=O)[C@H](Cc1ccccc1)NC(=O)[C@H](CCC(=O)O)NC(=O)[C@H](CCCCNC(=O)COc1ccc(-c2ccccc2)cc1C(=O)O)NC(=O)[C@H](C)NC(=O)[C@H](C)NC(=O)[C@H](CCC(N)=O)NC(=O)CNC(=O)[C@H](CCC(=O)O)NC(=O)[C@H](CC(C)C)NC(=O)[C@H](Cc1ccc(O)cc1)NC(=O)[C@H](CO)NC(=O)[C@H](CO)NC(=O)[C@@H](NC(=O)[C@H](CC(=O)O)NC(=O)[C@H](CO)NC(=O)[C@@H](NC(=O)[C@H](Cc1ccccc1)NC(=O)[C@@H](NC(=O)CNC(=O)[C@H](CCC(=O)O)NC(=O)[C@H](C)NC(=O)[C@@H](N)Cc1cnc[nH]1)[C@@H](C)O)[C@@H](C)O)C(C)C)C(=O)N[C@@H](C)C(=O)N[C@@H](Cc1c[nH]c2ccccc12)C(=O)N[C@@H](CC(C)C)C(=O)N[C@H](C(=O)N[C@@H](CCCNC(=N)N)C(=O)NCC(=O)N[C@@H](CCCNC(=N)N)C(=O)NCC(=O)O)C(C)C`, the Vr in [2] was 9.8 to 16 mL.

`CC[C@H](C)[C@H](NC(=O)[C@H](Cc1ccccc1)NC(=O)[C@H](CCC(=O)O)NC(=O)[C@H](CCCCNC(=O)COc1ccc(-c2ccc(F)cc2F)cc1C(=O)O)NC(=O)[C@H](C)NC(=O)[C@H](C)NC(=O)[C@H](CCC(N)=O)NC(=O)CNC(=O)[C@H](CCC(=O)O)NC(=O)[C@H](CC(C)C)NC(=O)[C@H](Cc1ccc(O)cc1)NC(=O)[C@H](CO)NC(=O)[C@H](CO)NC(=O)[C@@H](NC(=O)[C@H](CC(=O)O)NC(=O)[C@H](CO)NC(=O)[C@@H](NC(=O)[C@H](Cc1ccccc1)NC(=O)[C@@H](NC(=O)CNC(=O)[C@H](CCC(=O)O)NC(=O)[C@H](C)NC(=O)[C@@H](N)Cc1cnc[nH]1)[C@@H](C)O)[C@@H](C)O)C(C)C)C(=O)N[C@@H](C)C(=O)N[C@@H](Cc1c[nH]c2ccccc12)C(=O)N[C@@H](CC(C)C)C(=O)N[C@H](C(=O)N[C@@H](CCCNC(=N)N)C(=O)NCC(=O)N[C@@H](CCCNC(=N)N)C(=O)NCC(=O)O)C(C)C`: the outcome in the series on Mus musculus [1] was inactive. Also, on Albumin, the PB result is given as “Dose-dependent effect”.

Take `CC[C@H](C)[C@H](NC(=O)[C@H](Cc1ccccc1)NC(=O)[C@H](CCC(=O)O)NC(=O)[C@H](CCCCN)NC(=O)[C@H](C)NC(=O)[C@H](C)NC(=O)[C@H](CCC(N)=O)NC(=O)CNC(=O)[C@H](CCC(=O)O)NC(=O)[C@H](CC(C)C)NC(=O)[C@H](Cc1ccc(O)cc1)NC(=O)[C@H](CO)NC(=O)[C@H](CO)NC(=O)[C@@H](NC(=O)[C@H](CC(=O)O)NC(=O)[C@H](CO)NC(=O)[C@@H](NC(=O)[C@H](Cc1ccccc1)NC(=O)[C@@H](NC(=O)CNC(=O)[C@H](CCC(=O)O)NC(=O)[C@H](C)NC(=O)[C@H](Cc1cnc[nH]1)NC(=O)[C@H](CCCNC(=N)N)NC(=O)[C@H](CCC(=O)O)NC(=O)[C@H](Cc1ccccc1)NC(=O)[C@H](CCC(=O)O)NC(=O)[C@H](CC(=O)O)NC(=O)[C@@H](N)Cc1cnc[nH]1)[C@@H](C)O)[C@@H](C)O)C(C)C)C(=O)N[C@@H](C)C(=O)N[C@@H](Cc1c[nH]c2ccccc12)C(=O)N[C@@H](CC(C)C)C(=O)N[C@H](C(=O)N[C@@H](CCCCN)C(=O)NCC(=O)N[C@@H](CCCNC(=N)N)C(N)=O)C(C)C`: the half-life in series [3] was < 2 min.

Turning to `CC[C@H](C)[C@H](NC(=O)[C@H](Cc1ccccc1)NC(=O)[C@H](CCC(=O)O)NC(=O)[C@H](CCCCNC(=O)CC[C@H](NC(=O)Cc1c(C)n(C(=O)c2ccc(Cl)cc2)c2ccc(OC)cc12)C(=O)O)NC(=O)[C@H](C)NC(=O)[C@H](C)NC(=O)[C@H](CCC(N)=O)NC(=O)CNC(=O)[C@H](CCC(=O)O)NC(=O)[C@H](CC(C)C)NC(=O)[C@H](Cc1ccc(O)cc1)NC(=O)[C@H](CO)NC(=O)[C@H](CO)NC(=O)[C@@H](NC(=O)[C@H](CC(=O)O)NC(=O)[C@H](CO)NC(=O)[C@@H](NC(=O)[C@H](Cc1ccccc1)NC(=O)[C@@H](NC(=O)CNC(=O)[C@H](CCC(=O)O)NC(=O)[C@H](C)NC(=O)[C@@H](N)Cc1cnc[nH]1)[C@@H](C)O)[C@@H](C)O)C(C)C)C(=O)N[C@@H](C)C(=O)N[C@@H](Cc1c[nH]c2ccccc12)C(=O)N[C@@H](CC(C)C)C(=O)N[C@H](C(=O)N[C@@H](CCCNC(=N)N)C(=O)NCC(=O)N[C@@H](CCCNC(=N)N)C(=O)NCC(=O)O)C(C)C`, the AUC in the series with Mus musculus [4] was 614 mmol·min/L. Further, in [5], the Tmax was 30 min. Further, the result with Mus musculus [1] and in the series on Mus musculus [6] was inactive. Also, on Albumin, the PB result was “Dose-dependent effect”. In addition, the half-life in series [7] stood at 55 min. In series [2], the Vr is 6.8 to 16 mL.

Turning to `CC[C@H](C)[C@H](NC(=O)[C@H](Cc1ccccc1)NC(=O)[C@H](CCC(=O)O)NC(=O)[C@H](CCCCNC(=O)[C@H](CCCNC(=O)COc1ccc(-c2ccc(F)cc2F)cc1C(=O)O)NC(=O)CC[C@H](NC(=O)Cc1c(C)n(C(=O)c2ccc(Cl)cc2)c2ccc(OC)cc12)C(=O)O)NC(=O)[C@H](C)NC(=O)[C@H](C)NC(=O)[C@H](CCC(N)=O)NC(=O)CNC(=O)[C@H](CCC(=O)O)NC(=O)[C@H](CC(C)C)NC(=O)[C@H](Cc1ccc(O)cc1)NC(=O)[C@H](CO)NC(=O)[C@H](CO)NC(=O)[C@@H](NC(=O)[C@H](CC(=O)O)NC(=O)[C@H](CO)NC(=O)[C@@H](NC(=O)[C@H](Cc1ccccc1)NC(=O)[C@@H](NC(=O)CNC(=O)[C@H](CCC(=O)O)NC(=O)[C@H](C)NC(=O)[C@@H](N)Cc1cnc[nH]1)[C@@H](C)O)[C@@H](C)O)C(C)C)C(=O)N[C@@H](C)C(=O)N[C@@H](Cc1c[nH]c2ccccc12)C(=O)N[C@@H](CC(C)C)C(=O)N[C@H](C(=O)N[C@@H](CCCNC(=N)N)C(=O)NCC(=O)N[C@@H](CCCNC(=N)N)C(=O)NCC(=O)O)C(C)C`, the Activity in the series with Mus musculus [8] turned out to be 1.62 g; in series [10] it was 21.6 nm. The outcome (in [9]; in the series with Mus musculus [1]) was Active. For the same molecule, the AUC with Mus musculus [4] was determined as 642 mmol·min/L. Further, the Tmax in series [5] stood at 240 min. Also, the PB result on Albumin is “Dose-dependent effect”. The same molecule came in with a half-life in [7] of 299 min. In addition, in [2], the Vr stood at 6.6 mL.

Regarding `CC[C@H](C)[C@H](NC(=O)[C@H](Cc1ccccc1)NC(=O)[C@H](CCC(=O)O)NC(=O)[C@H](CCCCN)NC(=O)[C@H](C)NC(=O)[C@H](C)NC(=O)[C@H](CCC(N)=O)NC(=O)CNC(=O)[C@H](CCC(=O)O)NC(=O)[C@H](CC(C)C)NC(=O)[C@H](Cc1ccc(O)cc1)NC(=O)[C@H](CO)NC(=O)[C@H](CO)NC(=O)[C@@H](NC(=O)[C@H](CC(=O)O)NC(=O)[C@H](CO)NC(=O)[C@@H](NC(=O)[C@H](Cc1ccccc1)NC(=O)[C@@H](NC(=O)CNC(=O)[C@H](CCC(=O)O)NC(=O)[C@H](C)NC(=O)[C@@H](N)Cc1c[nH]cn1)[C@@H](C)O)[C@@H](C)O)C(C)C)C(=O)N[C@@H](C)C(=O)N[C@@H](Cc1c[nH]c2ccccc12)C(=O)N[C@@H](CC(C)C)C(=O)N[C@H](C(=O)N[C@@H](CCCNC(=N)N)C(=O)NCC(=O)N[C@@H](CCCNC(=N)N)C(=O)NCC(=O)O)C(C)C`, in series [2], the Vr turned out to be 14.1 mL.

For the molecule `CC[C@H](C)[C@H](NC(=O)[C@H](Cc1ccccc1)NC(=O)[C@H](CCC(=O)O)NC(=O)[C@H](CCCCNC(=O)COCCOCCNC(=O)COc1ccc(-c2ccc(F)cc2F)cc1C(=O)O)NC(=O)[C@H](C)NC(=O)[C@H](C)NC(=O)[C@H](CCC(N)=O)NC(=O)CNC(=O)[C@H](CCC(=O)O)NC(=O)[C@H](CC(C)C)NC(=O)[C@H](Cc1ccc(O)cc1)NC(=O)[C@H](CO)NC(=O)[C@H](CO)NC(=O)[C@@H](NC(=O)[C@H](CC(=O)O)NC(=O)[C@H](CO)NC(=O)[C@@H](NC(=O)[C@H](Cc1ccccc1)NC(=O)[C@@H](NC(=O)CNC(=O)[C@H](CCC(=O)O)NC(=O)[C@H](C)NC(=O)[C@@H](N)Cc1cnc[nH]1)[C@@H](C)O)[C@@H](C)O)C(C)C)C(=O)N[C@@H](C)C(=O)N[C@@H](Cc1c[nH]c2ccccc12)C(=O)N[C@@H](CC(C)C)C(=O)N[C@H](C(=O)N[C@@H](CCCNC(=N)N)C(=O)NCC(=O)N[C@@H](CCCNC(=N)N)C(=O)NCC(=O)O)C(C)C`, the result in the series on Mus musculus [1] was inactive.

For orientation: half-life means the time in which the quantity being followed falls by half. The low end stands for rapid decline, the high end for slow decline. Usually Tmax stands for the time at which the peak concentration occurs.

These data come from ChEMBL document CHEMBL4017493, “Peptide Half-Life Extension: Divalent, Small-Molecule Albumin Interactions Direct the Systemic Properties of Glucagon-Like Peptide 1 (GLP-1) Analogues” (J Med Chem, 2017).
